The values below come from paper PMC9678865, “An odorant-binding protein in the elephant's trunk is finely tuned to sex pheromone (Z)-7-dodecenyl acetate” (Scientific Reports, 2022).

Entries after “also recorded” stand apart in the source; their conditions may differ.

One experiment deals with recombinant LafrOBP1 (Loxodonta africana, UniProt G3UMG1). The experiment in a line: Competitive binding by displacement of 1-NPN. On the set-up: species or system African elephant (Loxodonta africana). The note with it: protein and 1-NPN 2 μM each, ligand 2–16 μM. How it is done:
(§1) Recombinant LafrOBP1 and EmaxOBP1 were then tested in ligand-binding assays using the Asian elephant pheromones (Z)-7-dodecenyl acetate and frontalin, and the insect pheromone components found in elephants, exo-brevicomin and (E)-β-farnesene, as well as structurally related compounds, and chemicals of different size and structure, which could contribute to estimate the specificity of these proteins. Both LafrOBP1 and EmaxOBP1 bound the fluorescent probe 1-NPN with good affinity (Fig. 5A), thus enabling the use of the fluorescent displacement assay to evaluate the affinities of other ligands. Some representative curves of competitive binding experiments for LafrOBP1 are shown in Fig. 5B-C, while in the histogram of Fig. 5D the binding spectra of LafrOBP1 and EmaxOBP1 are compared. The specificity of LafrOBP1 can be better appreciated from the graph of Fig. 6, where the affinities of esters to the protein are plotted as a function of the ligand's size.
(§2) Affinities of the fluorescent probe N-phenyl-1-naphthylamine (1-NPN) to EmaxOBP1 and LafrOBP1 (both expressed in yeast) were evaluated by titrating a 2 μM solution of each protein in 50 mM Tris-HCl, pH 7.4 with 1 mM 1-NPN in methanol to final concentrations of 2–16 μM. Dissociation constants of other ligands were measured by displacement of the fluorescent reporter 1-NPN from the complex. Accordingly, solutions of protein and 1-NPN, both at the concentration of 2 μM in 50 mM Tris-HCl, pH 7.4, were titrated with 1 mM methanol solutions of each ligand to final concentrations of 2–16 μM. Emission spectra were recorded on a PerkinElmer FL 6500 spectrofluorimeter in a right-angle configuration, at room temperature, with slits of 5 nm for both excitation and emission, using 1 cm path quartz cuvettes. The excitation wavelength was set at 337 nm and intensities were recorded in correspondence with the peak maximum, around 390 nm. Data for 1-NPN were processed with Prism software.
(§3) Dissociation constants of other ligands were calculated from the corresponding [IC]50 values (the. concentration of each ligand halving the initial value of fluorescence), using the equation: Kd = [IC]50/1 + [1-NPN]/KNPN, where [1-NPN] is the concentration of free 1-NPN and KNPN the. dissociation constant of the complex OBP/1-NPN.

Experiment [1] has as its target T1, recombinant EmaxOBP1 (Elephas maximus, UniProt Q8HZN2). The experiment is described as follows: Competitive binding by displacement of 1-NPN. The arrangement: species or system Asian elephant (Elephas maximus). To be noted: protein and 1-NPN 2 μM each, ligand 2–16 μM. The procedure:
as §1, §2, §3

In experiment [2] the target is T1, recombinant EmaxOBP1. The experiment in a line: Titration of recombinant protein with fluorescent probe 1-NPN. In kind it is binding, Asian elephant (Elephas maximus). The note with it: 2 μM protein in 50 mM Tris-HCl pH 7.4, room temperature. The procedure: as §2
Experiment [3] concerns second major band (apparent mass around 25 kDa) from expression of LafrOBP1 in P. pastoris. The experiment is described as follows: Binding of 1-NPN to the second band (around 25 kDa) from LafrOBP1 expression. The arrangement: species or system African elephant (Loxodonta africana). The note with it: purified second band. The source says: Based on above-reported proteomic analysis and on the available sequences in the protein databases, we decided to focus our functional study on the OBP1 of both species. Thus, LafrOBP1 and EmaxOBP1 were expressed in the yeast Pichia pastoris using the protocol reported in the Materials and Methods section. We chose to perform functional studies on recombinant proteins because attempts to purify natural LafrOBP1 from its contaminants were unsuccessful (data not shown). The recombinant proteins were secreted in the culture medium, concentrated by ultrafiltration and purified by anion-exchange chromatography, followed by a step of hydrophobic interaction chromatography on Phenyl Sepharose. Figure S3 reports the SDS-PAGE analysis relative to the expression and purification of the two proteins. The expression of EmaxOBP1 produced a single major band migrating with an apparent molecular weight (around 20 kDa), compatible with the calculated mass for this protein (18,506.7 Da). Instead, the expression of the African elephant orthologue afforded two major bands, the first migrating at the same level as EmaxOBP1, the second with an apparent mass around 25 kDa.

Experiment [4] relates to OBP in the trunk wash of the Asian elephant. On the set-up: method as in PMID 12269821. The note with it: tritium-labelled ligand; radioactivity associated with OBP band; no dissociation constant; cited from earlier work.
Experiment [5] has as its target natural LafrOBP1 (trunk wash fractions 26–29, also containing its isoform and LafrVEG) (Loxodonta africana, UniProt G3UMG1). The experiment is described as follows: Competitive fluorescent (1-NPN) ligand-binding assay on crude anion-exchange fractions 26–29 of trunk wash. On the set-up: species or system African elephant (Loxodonta africana). To be noted: crude trunk wash fractions 26–29 / natural LafrOBP1. The procedure: Given the predominant presence of LafrOBP1 in the trunk wash of the African elephant, we attempted purification of this protein from a crude sample of this secretion by anion-exchange chromatography. Relevant fractions (#26–29) were analysed by SDS-PAGE, (Fig. 2A) and nanoLC-ESI-Q-Orbitrap-MS/MS to identify the proteins present and detect possible PTMs. The same fractions were also tested in ligand-binding assays with some of the two elephants' pheromones and other potential semiochemicals to detect any binding activity (Fig. 2B-C).
Figure 2 (A) Fractionation of a crude extract of trunk wash from the African elephant by anion-exchange chromatography. SDS-PAGE analysis of the fractions showing electrophoretic bands in the low molecular weight range (15–25 kDa). (B) Summary of the affinities to (Z)-7-dodecenyl acetate, (E)-β-farnesene and frontalin measured with crude samples of the same fractions. All of them bound with good affinity both (Z)-7-dodecenyl acetate and (E)-β-farnesene. […] Dissociation constants were evaluated using the procedure adopted when dealing with solutions of a pure protein; as this is not the case, the values have to be taken as a crude indication of the affinity of the ligands for the protein. (C) Examples of the competition curves measured with the three ligands on fraction 27. […]
as §2, with “Accordingly, solutions of protein and 1-NPN, both at the concentration of 2 μM in 50 mM Tris-HCl, pH 7.4, were titrated with 1 mM methanol solutions of each ligand to final concentrations of 2–16 μM.” left out, “Data for 1-NPN were processed with Prism software.” left out

T1 sequence (Q8HZN2 entry or part of it): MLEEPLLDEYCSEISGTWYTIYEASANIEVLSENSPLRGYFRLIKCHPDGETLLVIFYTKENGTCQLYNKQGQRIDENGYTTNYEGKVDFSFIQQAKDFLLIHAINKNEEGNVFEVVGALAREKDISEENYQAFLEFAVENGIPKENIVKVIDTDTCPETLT
Chain of recombinant LafrOBP1 (G3UMG1 entry or part of it): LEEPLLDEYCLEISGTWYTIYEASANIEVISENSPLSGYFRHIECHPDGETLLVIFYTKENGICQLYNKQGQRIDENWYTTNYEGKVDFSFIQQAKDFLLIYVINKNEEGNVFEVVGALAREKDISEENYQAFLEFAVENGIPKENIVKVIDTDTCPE
Chain of natural LafrOBP1 (trunk wash fractions 26–29, also containing its isoform and LafrVEG) (G3UMG1 entry or part of it): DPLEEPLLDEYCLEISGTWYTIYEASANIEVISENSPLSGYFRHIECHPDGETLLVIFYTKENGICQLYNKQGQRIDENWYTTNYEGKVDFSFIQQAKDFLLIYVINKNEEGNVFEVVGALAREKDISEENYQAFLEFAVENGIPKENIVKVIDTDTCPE

Turning to `CCCC/C=C\CCCCCCCCCCOC(C)=O` [(Z)-11-hexadecenyl acetate], the “binding to recombinant LafrOBP1 (in words)” value at recombinant LafrOBP1 is on record as “did not show significant binding”. Also, the “binding to recombinant EmaxOBP1 (in words)” value on recombinant EmaxOBP1 [1] is recorded as “did not show significant binding”.

On to `CC1(C)C2CCC1(C)C(O)C2` (stereo not drawn) [borneol], for which the “binding to recombinant LafrOBP1 (in words)” value at recombinant LafrOBP1 is listed as “did not show significant binding”. In addition, the “binding to recombinant EmaxOBP1 (in words)” value at recombinant EmaxOBP1 [1] is recorded as “did not show significant binding”.

Turning to `C=CCc1ccc(O)c(OC)c1` [eugenol], on recombinant LafrOBP1, the “binding to recombinant LafrOBP1 (in words)” value is reported as “did not show significant binding; also recorded: did not exhibit significant affinity”. For the same compound, on recombinant EmaxOBP1 [1], the “binding to recombinant EmaxOBP1 (in words)” value is given as “did not show significant binding; also recorded: did not exhibit significant affinity”.

In the case of `CCCCCCCC=O` [octanal], the “binding to recombinant LafrOBP1 (in words)” value on recombinant LafrOBP1 is listed as “did not show significant binding; also recorded: did not exhibit significant affinity”. Moreover, the “binding to recombinant EmaxOBP1 (in words)” value on recombinant EmaxOBP1 [1] is recorded as “did not show significant binding; also recorded: did not exhibit significant affinity”.

Broadly, the Kd is the constant that tells how readily two partners part at equilibrium. Take `c1ccc(Nc2cccc3ccccc23)cc1` [1-NPN, N-phenyl-1-naphthylamine]: at recombinant EmaxOBP1 [2], the Kd came to 460 nM. The “affinity to the 25 kDa band (in words)” value in experiment [3] is on record as “did not show any affinity”.

For the compound `CCCC/C=C\CCCCCCCCCCCC=O` [(Z)-13-octadecenal], the “binding to recombinant LafrOBP1 (in words)” value on recombinant LafrOBP1 is given as “did not show significant binding; also recorded: did not exhibit significant affinity”. Also, the “binding to recombinant EmaxOBP1 (in words)” value on recombinant EmaxOBP1 [1] is listed as “did not show significant binding; also recorded: did not exhibit significant affinity”.

Turning to `CCCCCCCCCCCC=O` [dodecanal], the “binding to recombinant LafrOBP1 (in words)” value at recombinant LafrOBP1 is “did not show significant binding”. Besides, on recombinant EmaxOBP1 [1], the “binding to recombinant EmaxOBP1 (in words)” value was “did not show significant binding”.

Regarding `CCCC/C=C\CCCCCCOC(C)=O` [(Z)-7-dodecenyl acetate], at recombinant LafrOBP1, the “binding to recombinant LafrOBP1 (in words)” value is recorded as “strongest ligand”.

Consider `CCCCCCCCCCCCCC(=O)OCC` [ethyl myristate], for which the “binding to recombinant LafrOBP1 (in words)” value at recombinant LafrOBP1 was “did not show significant binding”. At recombinant EmaxOBP1 [1], the “binding to recombinant EmaxOBP1 (in words)” value was “did not show significant binding”.

For `CCCC/C=C/CCCCCCOC(C)=O` [(E)-7-dodecenyl acetate], in experiment [4], the “binding to trunk wash OBP (in words)” value is listed as “shown to bind”.

For `CC12CCC(CC1)C(C)(C)O2` [eucalyptol], the “binding to recombinant LafrOBP1 (in words)” value at recombinant LafrOBP1 is on record as “did not show significant binding”; at recombinant LafrOBP1 (listed as eucaliptol), “did not exhibit significant affinity”. Also, the results for the “binding to recombinant EmaxOBP1 (in words)” value on recombinant EmaxOBP1 [1] and at recombinant EmaxOBP1 [1] (listed as eucaliptol) were “did not show significant binding” and “did not exhibit significant affinity”, respectively.

For `CC12CCCC(C)(OC1)O2` (stereo not drawn) [frontalin, 1,5-dimethyl-6,8-dioxabicyclo[3.2.1]octane], in experiment [5], the “binding to trunk wash fractions (in words)” value is “none of them appreciably bound; also recorded: no affinity”. At recombinant LafrOBP1, the “binding to recombinant LafrOBP1 (in words)” value is “no affinity; also recorded: did not exhibit any affinity”. Moreover, the “binding to recombinant EmaxOBP1 (in words)” value at recombinant EmaxOBP1 [1] is “no affinity”.

Turning to `CCCC/C=C\CCCCCCCCCC=O` [(Z)-11-hexadecenal], the “binding to recombinant LafrOBP1 (in words)” value at recombinant LafrOBP1 is listed as “did not show significant binding; also recorded: did not exhibit significant affinity”. Also, the “binding to recombinant EmaxOBP1 (in words)” value at recombinant EmaxOBP1 [1] is “did not show significant binding; also recorded: did not exhibit significant affinity”.

In the case of `C=CC(=C)CC/C=C(\C)CCC=C(C)C` [(E)-β-farnesene, (6E)-7,11-dimethyl-3-methylene-1,6,10-dodecatriene], the “binding to recombinant LafrOBP1 (in words)” value at recombinant LafrOBP1 is reported as “good ligand”.

`CC/C=C\CCOC(C)=O` [(Z)-3-hexenyl acetate]: the “binding to recombinant LafrOBP1 (in words)” value at recombinant LafrOBP1 was “did not show significant binding”. In addition, the “binding to recombinant EmaxOBP1 (in words)” value at recombinant EmaxOBP1 [1] is on record as “did not show significant binding”.

Regarding `CCCCCC/C=C\CCCCCCCC=O` [(Z)-9-hexadecenal], on recombinant LafrOBP1, the “binding to recombinant LafrOBP1 (in words)” value is “did not show significant binding”. In addition, the “binding to recombinant EmaxOBP1 (in words)” value on recombinant EmaxOBP1 [1] is recorded as “did not show significant binding”.

With `CCCCCC=O` [hexanal], on recombinant LafrOBP1, the “binding to recombinant LafrOBP1 (in words)” value was “did not exhibit significant affinity”. For the same compound, the “binding to recombinant EmaxOBP1 (in words)” value at recombinant EmaxOBP1 [1] is “did not exhibit significant affinity”.

As for `CC(C)=CCC/C(C)=C/CC/C(C)=C/CO` [farnesol], in experiment [5], the “binding to trunk wash fractions (in words)” value was “as good a ligand as (E)- β-farnesene”.

As for `Cc1ccc(O)cc1` [p-cresol], the “binding to recombinant LafrOBP1 (in words)” value at recombinant LafrOBP1 is on record as “did not exhibit significant affinity”. Also, at recombinant EmaxOBP1 [1], the “binding to recombinant EmaxOBP1 (in words)” value is “did not exhibit significant affinity”.

`CC[C@H]1O[C@]2(C)CCC[C@H]1O2` [exo-brevicomin, (1R,5S,7R)-7-ethyl-5-methyl-6,8-dioxabicyclo[3.2.1]octane]: the “binding to trunk wash fractions (in words)” value in experiment [5] is “did not exhibit any affinity”.

`CCCCCCCCCC1CCC(=O)O1` (stereo not drawn) [γ-tridecalactone]: on recombinant LafrOBP1, the “binding to recombinant LafrOBP1 (in words)” value was “did not show significant binding”. Further, the “binding to recombinant EmaxOBP1 (in words)” value at recombinant EmaxOBP1 [1] is “did not show significant binding”.

For `CCCCCCCCCC=O` [decanal], at recombinant LafrOBP1, the “binding to recombinant LafrOBP1 (in words)” value is “did not show significant binding; also recorded: did not exhibit significant affinity”. Further, the “binding to recombinant EmaxOBP1 (in words)” value at recombinant EmaxOBP1 [1] is given as “did not show significant binding; also recorded: did not exhibit significant affinity”.
